{"source": "patent US20220304992A1", "about": "“METHODS OF REJUVENATING AGED TISSUE BY INHIBITING 15-HYDROXYPROSTAGLANDIN DEHYDROGENASE (15-PGDH)” (The Board of Trustees of the Leland Stanford Junior …, priority 2019, published 2022)", "system": "myofibers", "experiment": "Myofiber cross-sectional area and fiber typing by immunofluorescence", "assay_type": "in vivo, mouse", "details": "aged mice, 1 month", "protocol": "We collected and prepared recipient Tibialis anterior (TA) or gastrocnemius (GA) muscle tissues for histology as previously described (5). We fixed transverse sections from muscles using 4% PFA, blocked and permeabilized using PBS/1% BSA/0.1% Triton X-100 and incubated with anti-LAMININ (Millipore, clone A5, catalog #05-206, 1:200) and then with AlexaFluor secondary Antibodies (Jackson ImmunoResearch Laboratories, 1:200) or wheat germ agglutinin-Alexa 647 conjugate (WGA, Thermo Fisher Scientific). We counterstained nuclei with DAPI (Invitrogen).\nWe acquired images on a Zeiss 510 laser scanning confocal microscope (Carl Zeiss Microimaging) with 40x/0.9N.A. objective to capture multiple consecutive focal planes or using the KEYENCE BZ-X700 all-in-one fluorescence microscope (Keyence) with 20x/0.75 N.A. objectives. We analyzed the myofiber area using the Keyence Advanced Analysis Software. For cross sectional area the maximum cross sectional area of the muscle was quantified or at least 10 fields of LAMININ-stained myofiber cross-sections encompassing over 400 myofibers were captured for each mouse as above. […] The researchers performing the imaging acquisition and scoring were unaware of treatment condition given to sample groups analyzed. […]\nImages were acquired using KEYENCE BZ-X700 all in one fluorescence microscope with 20x/0.75 NA. objectives and individual fields were stitched and analyzed using Keyence Advanced Analysis Software.\nFor cultured myotubes we performed fixation using 4% PFA, blocking and permeabilization using PBS/1% BSA/0.1% Triton X-100 and staining with primary antibodies anti-MYH (Thermo Fisher Scientific, catalog #14-6503-82, clone MF-20, 1:500) and then with AlexaFluor secondary Antibodies (Jackson ImmunoResearch Laboratories, 1:500). […] We acquired images using the KEYENCE BZ-X700 all-in-one fluorescence microscope (Keyence) with 20x/0.75 N.A. objectives. We analyzed the fiber area using the Keyence Advanced Analysis Software. […] The researchers performing the imaging acquisition and scoring were unaware of treatment condition given to sample groups analyzed.", "note": "“Also recorded” adds a separate entry of the source.", "data": [{"smiles": "CCCC[S+]([O-])c1sc2nc(-c3cccs3)cc(-c3ccccc3)c2c1N", "note": "(stereo not drawn) [SW033291, 2-(butylsulfinyl)-4-phenyl-6-(thiophen-2-yl)thieno[2,3-b]pyridin-3-amine]", "values": [{"measurement": "cross-sectional area of glycolytic (type IIb) fibers", "value": "increase"}, {"measurement": "cross-sectional area of oxidative (type IIa) fibers", "value": "increase"}, {"measurement": "myofiber cross-sectional area", "setting": "daily i.p., listed as SW", "value": "larger; also recorded: significantly augmented"}]}]}
